Experimental data from patent US11667602B2, “Compounds and their use” (AstraZeneca AB, priority 2020, dated 2023).

Target: T1, human RXFP1 (Homo sapiens, UniProt Q9HBX9)
T1 sequence (Q9HBX9 1-757): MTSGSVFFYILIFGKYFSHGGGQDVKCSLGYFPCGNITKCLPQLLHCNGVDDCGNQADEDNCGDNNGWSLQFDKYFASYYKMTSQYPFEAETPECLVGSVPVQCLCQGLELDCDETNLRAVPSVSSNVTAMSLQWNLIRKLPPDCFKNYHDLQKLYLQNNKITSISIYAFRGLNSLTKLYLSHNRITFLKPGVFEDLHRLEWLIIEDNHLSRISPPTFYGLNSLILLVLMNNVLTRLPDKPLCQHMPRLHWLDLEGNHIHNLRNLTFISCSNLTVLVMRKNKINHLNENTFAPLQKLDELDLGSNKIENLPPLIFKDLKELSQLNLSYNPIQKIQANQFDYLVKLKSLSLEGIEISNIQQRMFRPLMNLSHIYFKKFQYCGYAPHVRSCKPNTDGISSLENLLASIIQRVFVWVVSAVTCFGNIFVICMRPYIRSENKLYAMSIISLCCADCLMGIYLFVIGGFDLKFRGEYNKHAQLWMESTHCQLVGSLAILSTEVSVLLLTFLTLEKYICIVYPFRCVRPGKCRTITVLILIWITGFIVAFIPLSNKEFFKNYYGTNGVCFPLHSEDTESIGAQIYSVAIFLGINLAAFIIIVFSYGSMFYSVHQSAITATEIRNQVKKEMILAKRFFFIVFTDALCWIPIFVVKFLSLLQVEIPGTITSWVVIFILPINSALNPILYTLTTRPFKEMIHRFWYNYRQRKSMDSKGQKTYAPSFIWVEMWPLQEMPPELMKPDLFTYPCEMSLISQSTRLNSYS
Experiment: RXFP1 Hu cAMP (Test A)
Type: cell-based
Set-up: expressed in transfected cells; host or cells: Jump-In T-REx CHO-K1 cells (ThermoFisher), induced with 10 ng/ml doxycycline for 24 h
Conditions: RXFP1 Hu cAMP; for EC50: read-out: Test A EC50
Outline: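 CHO-K1 (Jump-In T-REx), RXFP1 induced w/ 10 ng/ml doxycycline 24 h, cryopreserved. 0.5 mM IBMX final. cAMP by HTRF, 2 h RT, std curve.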

| Compound | Test A Sinf [%] | EC50 [nM] |
| --- | --- | --- |
| COc1cc(F)c(OC2CCC(CO)(C(=O)O)CC2)cc1C(=O)N[C@H]1[C@H]2CC[C@H](C2)[C@H]1C(=O)Nc1cccc(S(=O)(=O)C(F)(F)F)c1 (relative stereo) [Example 585, (1R,4s)-4-(2-Fluoro-4-methoxy-5-(((1S*,2S*,3R*,4R*)-3-((3-((trifluoromethyl)sulfonyl)phenyl)carbamoyl)bicyclo[2.2.1]heptan-2-yl)carbamoyl)phenoxy)-1-(hydroxymethyl)cyclohexane-1-carboxylic acid] | 93 | 240 |
| COc1cc(-c2cc(C(=O)N[C@@H]3[C@H]4CC[C@H](C4)[C@@H]3C(=O)Nc3cccc(S(=O)(=O)C(F)(F)F)c3)c(OC)cc2F)ccc1CCC(=O)O [Example 259, 3-(2′-Fluoro-3,4′-dimethoxy-5′-(((1S,2R,3S,4R)-3-((3-((trifluoromethyl)sulfonyl)phenyl)carbamoyl)bicyclo[2.2.1]heptan-2-yl)carbamoyl)-[1,1′-biphenyl]-4-yl)propanoic acid] | 97 | 58 |
| COc1cc(F)c(-c2cccc(C(=O)O)c2F)cc1C(=O)N[C@H]1[C@@H](C(=O)Nc2cccc(S(=O)(=O)C(F)(F)F)c2)[C@@H]2C=C[C@H]1C2 (racemic) [Example 233] | 105 | – |
| COc1cc(F)c(O[C@H]2CC[C@@](C)(C(=O)O)CC2)cc1C(=O)N[C@@H]1[C@H]2CC[C@H](C2)[C@@H]1C(=O)NCC1CC(F)(F)C1 [Example 620] | 93 | 690 |
| COc1cc(F)c(-c2ccc(C(=O)O)s2)cc1C(=O)N[C@H]1[C@@H](C(=O)Nc2cccc(S(=O)(=O)C(F)(F)F)c2)[C@@H]2C=C[C@H]1C2 (racemic) [Example 285] | 75 | 300 |
| COc1cc(F)c(O[C@H]2CC[C@@](C)(C(=O)O)CC2)cc1C(=O)N[C@H]1[C@@H](C(=O)Nc2cccc(S(=O)(=O)C(F)(F)F)c2)CC[C@H]1OC (racemic) [Example 397, (1R,4s)-4-(2-Fluoro-4-methoxy-5-(((1SR,2RS,5SR)-2-methoxy-5-((3-((trifluoromethyl)sulfonyl)phenyl)carbamoyl)cyclopentyl)carbamoyl)phenoxy)-1-methylcyclohexane-1-carboxylic acid] | – | > 40000 |
| COc1ccc(Oc2cccc(C(=O)O)c2)cc1C(=O)N[C@H]1[C@@H](C(=O)Nc2cccc(S(=O)(=O)C(F)(F)F)c2)[C@@H]2C=C[C@H]1C2 (racemic) [Example 428] | 80 | 5100 |
| COc1cc(F)c(-c2ccc(OCC(=O)O)cc2)cc1C(=O)N[C@@H]1[C@H]2CC[C@H](C2)[C@@H]1C(=O)NCC(C)(C)C [Example 330, 2-((2′-Fluoro-4′-methoxy-5′-(((1S,2R,3S,4R)-3-(neopentylcarbamoyl)bicyclo[2.2.1]heptan-2-yl)carbamoyl)-[1,1′-biphenyl]-4-yl)oxy)acetic acid] | 97 | 530 |
| COc1cc(C#N)c(O[C@H]2CC[C@@](C)(C(=O)O)CC2)cc1C(=O)NC1CCC1C(=O)NCC1(C)CCC1 (single isomer, unassigned) [Example 572, (1R,4s)-4-(2-Cyano-4-methoxy-5-(((1S*,2R*)-2-(((1-methylcyclobutyl)methyl)carbamoyl)cyclobutyl)carbamoyl)phenoxy)-1-methylcyclohexane-1-carboxylic acid] | – | > 40000 |
| COc1cc(F)c(O[C@H]2CC[C@](C)(CC(=O)O)CC2)cc1C(=O)N[C@@H]1[C@H]2CC[C@H](C2)[C@@H]1C(=O)NCC1(C)CCC1 [Example 477, 2-((1R,4r)-4-(2-Fluoro-4-methoxy-5-(((1S,2R,3S,4R)-3-(((1-methylcyclobutyl)methyl)carbamoyl)bicyclo[2.2.1]heptan-2-yl)carbamoyl)phenoxy)-1-methylcyclohexyl)acetic acid] | 84 | – |
| (1R,4s)-4-(2-Cyano-4-fluoro-5-(((2S*,3R*)-3-(((1-methylcyclobutyl)methyl)carbamoyl)bicyclo[2.2.2]octan-2-yl)carbamoyl)phenoxy)-1-methylcyclohexane-1-carboxylic acid [Example 589] | 83 | – |
| CC1(CNC(=O)[C@H]2[C@@H]3CC[C@@H](C3)[C@H]2NC(=O)c2cc(O[C@H]3CC[C@@](C)(C(=O)O)CC3)c(F)cc2Cl)CCC1 [Example 398, (1S,4s)-4-(4-Chloro-2-fluoro-5-(((1S,2R,3S,4R)-3-(((1-methylcyclobutyl)methyl)carbamoyl)bicyclo[2.2.1]heptan-2-yl)carbamoyl)phenoxy)-1-methylcyclohexane-1-carboxylic acid] | 90 | 130 |
| COc1cc(F)c(O[C@H]2CC[C@@](C)(C(=O)O)CC2)cc1C(=O)N[C@H]1[C@@H](C(=O)NCC2(C)CCC2)[C@@H]2CC[C@H]1O2 (racemic) [Example 358] | 99 | 5100 |
| COc1cc(F)c(O[C@H]2CC[C@@](C)(C(=O)O)CC2)cc1C(=O)N[C@@H]1[C@H]2CC[C@H](C2)[C@@H]1C(=O)N[C@H]1CCCC1(C)C (relative stereo) [Example 504, (1S,4s)-4-(5-(((1S,2R,3S,4R)-3-(((R*)-2,2-Dimethylcyclopentyl)carbamoyl)bicyclo[2.2.1]heptan-2-yl)carbamoyl)-2-fluoro-4-methoxyphenoxy)-1-methylcyclohexane-1-carboxylic acid] | 91 | 600 |
| COc1cc(F)c(O[C@H]2CC[C@@](CO)(C(=O)O)CC2)cc1C(=O)NC1CC(OC)CC1C(=O)NCC(C)(C)C (single isomer, unassigned) [Example 548, (1R,4s)-4-(2-Fluoro-4-methoxy-5-(((1S*,2R*,4R*)-4-methoxy-2-(neopentylcarbamoyl)cyclopentyl)carbamoyl)phenoxy)-1-(hydroxymethyl)cyclohexane-1-carboxylic acid] | 117 | 21000 |
| COc1cc(F)c(O[C@H]2CC[C@@](C)(C(=O)O)CC2)cc1C(=O)N[C@@H]1CCCCC[C@@H]1C(=O)Nc1cccc(S(=O)(=O)C(F)(F)F)c1 (racemic) [Example 354] | 95 | 11 |
| COc1cc(F)c(-c2ccc(C(=O)O)cc2)cc1C(=O)N[C@H]1[C@@H]2CC[C@@H](C2)[C@H]1C(=O)N[C@H]1CCCN(S(=O)(=O)C(F)(F)F)C1 (single isomer, unassigned) [Example 313, 2′-Fluoro-4′-methoxy-5′-(((1R*,2S*,3R*,4S*)-3-(((S)-1-((trifluoromethyl)sulfonyl)piperidin-3-yl)carbamoyl)bicyclo[2.2.1]heptan-2-yl)carbamoyl)-[1,1′-biphenyl]-4-carboxylic acid] | – | > 40000 |
| COc1cc(F)c(O[C@H]2CC[C@@](CO)(C(=O)O)CC2)cc1C(=O)NC1COCC1C(=O)NCC(C)(C)C (single isomer, unassigned) [Example 578, (1R,4s)-4-(2-Fluoro-4-methoxy-5-(((3S*,4R*)-4-(neopentylcarbamoyl)tetrahydrofuran-3-yl)carbamoyl)phenoxy)-1-(hydroxymethyl)cyclohexane-1-carboxylic acid] | – | > 40000 |
| COc1cc(F)c(OCc2ccccc2C(=O)O)cc1C(=O)N[C@H]1[C@@H](C(=O)Nc2cccc(S(=O)(=O)C(F)(F)F)c2)[C@@H]2C=C[C@H]1C2 (racemic) [Example 448, rac-2-((2-Fluoro-4-methoxy-5-(((1R,2R,3S,4S)-3-((3-((trifluoromethyl)sulfonyl)phenyl)carbamoyl)bicyclo[2.2.1]hept-5-en-2-yl)carbamoyl)phenoxy)methyl)benzoic acid] | 77 | 2600 |
| COc1cc(F)c(-c2cnc(CCC(=O)O)cn2)cc1C(=O)N[C@@H]1[C@@H]2CC[C@@H](C2)[C@@H]1C(=O)Nc1cccc(S(=O)(=O)C(F)(F)F)c1 (racemic) [Example 324, rac-3-(5-(2-Fluoro-4-methoxy-5-(((1R,2R,3S,4S)-3-((3-((trifluoromethyl)sulfonyl)phenyl)carbamoyl)bicyclo[2.2.1]heptan-2-yl)carbamoyl)phenyl)pyrazin-2-yl)propanoic acid] | 101 | 190 |
| (1R,4s)-4-(2-Fluoro-4-methoxy-5-(((1S*,2S*,3R*,4R*)-3-((3-((trifluoromethyl)sulfonyl)phenyl)carbamoyl)bicyclo[2.2.1]heptan-2-yl)carbamoyl)phenoxy)-1-methylcyclohexane-1-carboxylic acid [Example 587] | 113 | – |
| COc1cc(F)c(C2CCC(C(=O)O)CC2)cc1C(=O)NC1C2CCC(C2)C1C(=O)Nc1cccc(S(=O)(=O)C(F)(F)F)c1 [Example 268, (1S,4s)-4-(2-Fluoro-4-methoxy-5-(((1S,2R,3S,4R)-3-((3-((trifluoromethyl)sulfonyl)phenyl)carbamoyl)bicyclo[2.2.1]heptan-2-yl)carbamoyl)phenyl)cyclohexane-1-carboxylic acid] | 84 | 860 |
